Measured values from patent publication US20130252930A1 (BIOMARIN PHARMACEUTICAL INC., priority 2010, published 2013).
pIC50: −log10 of the molar value. Read-outs that look alike come from different tables or passages of the source.

Columns and labels:
[1] = molecular target: T1, CYP17 (human testicular microsome) (Homo sapiens, UniProt P05093); test: CYP17 enzymatic assay (% inhibition at 1 nM) (Biological Example 12); assay type: biochemical; conditions: compound at 1 nM
T1 construct: using microsomal fraction from human testis (Celsis Cat #S00110) as the enzyme source; tissue Celsis S00110; host or cells: human testis microsomal fraction
T1 sequence (P05093 1-508): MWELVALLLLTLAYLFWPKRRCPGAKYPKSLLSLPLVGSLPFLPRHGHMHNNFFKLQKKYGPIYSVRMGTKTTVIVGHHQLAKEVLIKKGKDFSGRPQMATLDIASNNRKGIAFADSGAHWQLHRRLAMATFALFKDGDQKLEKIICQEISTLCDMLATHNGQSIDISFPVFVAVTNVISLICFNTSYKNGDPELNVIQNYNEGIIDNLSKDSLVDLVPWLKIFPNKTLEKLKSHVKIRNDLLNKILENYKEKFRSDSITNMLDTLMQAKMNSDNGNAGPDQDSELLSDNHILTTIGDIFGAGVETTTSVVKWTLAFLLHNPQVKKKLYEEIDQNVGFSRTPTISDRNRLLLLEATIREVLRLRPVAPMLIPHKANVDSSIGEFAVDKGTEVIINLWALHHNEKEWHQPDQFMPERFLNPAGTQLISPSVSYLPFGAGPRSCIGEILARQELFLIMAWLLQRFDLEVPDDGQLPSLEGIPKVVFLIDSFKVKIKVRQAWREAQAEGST

[2] = molecular target: T2, Cyp21 enzyme (Human HEK 293-Cyp21 stable transfected cells) (Homo sapiens, UniProt P08686); test: CYP21-HEK293 enzymatic assay (IC50) (Biological Example 11); assay type: cell-based
T2 construct: expressed in transfected cells
T2 sequence (P08686 1-495): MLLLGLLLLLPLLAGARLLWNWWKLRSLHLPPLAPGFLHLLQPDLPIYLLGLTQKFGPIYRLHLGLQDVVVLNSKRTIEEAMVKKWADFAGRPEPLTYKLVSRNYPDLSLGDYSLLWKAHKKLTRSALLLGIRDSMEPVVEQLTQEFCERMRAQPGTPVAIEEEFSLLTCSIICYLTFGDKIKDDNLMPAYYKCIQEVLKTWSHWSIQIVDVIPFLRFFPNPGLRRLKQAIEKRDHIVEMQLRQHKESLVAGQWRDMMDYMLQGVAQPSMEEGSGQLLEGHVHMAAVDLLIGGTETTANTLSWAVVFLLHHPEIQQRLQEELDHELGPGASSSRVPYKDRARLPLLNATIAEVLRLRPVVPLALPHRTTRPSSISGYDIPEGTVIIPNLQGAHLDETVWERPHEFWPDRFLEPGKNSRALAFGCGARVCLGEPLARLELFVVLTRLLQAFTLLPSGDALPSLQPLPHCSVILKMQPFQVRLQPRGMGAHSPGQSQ
Protocol: This assay was used to determine compound activity against Cyp21 enzyme. […] The next day, 20 μL medium was carefully removed and 10 μL of 10× pre-made compounds in DMEM+10% FBS+10% methanol was transferred to the wells to final concentrations of 1000, 100, 10, 1, or 0.1 nM. Mock treatment was 1% methanol in growth media and the cells were left at 37° C., 5% CO2 for 5 hr. After the incubation, 10 μL of substrate progesterone (Sigma) was added to the wells to make a final concentration of 10 μM. The cells were incubated the cells at 37° C. for 20 hr. At the end of incubation, 90 μL of conditioned media was removed to measure DOC level by ELISA.
The next day, the plates were washed twice with 250 μl of wash solution (0.015M PBS pH 7.4 containing 0.05% Tween 20). After being washed, the wells were blocked with 250 μL blocking buffer (3% BSA in 0.025M PBS, pH 7.4) at 37° C. for 2 h. The plates were washed again 3 times as before, and then 90 μL of sample /standards (prepared in complete growth media) was added into the appropriate wells followed by 10 μL of antibody solution (1:450 rabbit anti-DOC in 0.6% BSA/PBS). The plates were incubated at room temperature for 2 h on a shaker. The contents of the wells were removed and the plate was washed 4 times. After the final wash, 100 μL of secondary antibody (1:12000 HRP-goat-anti-rabbit IgG conjugate 0.6% BSA/PBS) was added into each well. […] The plate was washed again 4 times and 100 μL of TMB substrate solution was added to each well. The plate was incubated at room temperature for 10 min. 100 μL of stop solution was added to each well and the optical density was read at 450 nm.
The mean absorbance value for each sample was used to determine the corresponding concentration from the standard curve. Data was analyzed with “log(antagonist) vs response variable slope” under “non-linear regression analysis” using Prism5 software.

[3] = Human liver microsome stability assay (Biological Example 8b); conditions: liver microsomes, pH 7.4
Protocol: The reaction was started with addition of excess NADPH (5 mg/mL, 15 μL in 0.1 M potassium phosphate buffer, 1.0 mM EDTA, pH 7.4), the total volume is 45 μL (compound final concentration was 1 μM). […] 50 μL of the supernatant was transferred from each well into a 96-well sample plate containing 50 μL of ultra-pure water (Millipore) for LC-MS/MS analysis.

[4] = molecular target: T1, CYP17 (human testicular microsome); test: CYP17 enzymatic assay (IC50) (Biological Example 4); assay type: biochemical; conditions: human testicular microsome; read-out: Biological Example No. 4: CYP17 enzymatic assay IC50
[5] = read-out: CYP17 enzymatic assay % inhibition at 1 nM (Biological Example No. 12)
[6] = HEK 293-Cyp21 cells, read-out: CYP21-HEK293 enzymatic assay IC50 (Biological Example No. 11)
[7] = read-out: Biological Example No. 12: CYP17 enzymatic assay % inhibition at 1 nM
[8] = HEK 293-Cyp21 cells, read-out: Biological Example No. 11: CYP21-HEK293 enzymatic assay IC50
[9] = HEK 293-Cyp21 stable transfected cells, read-out: CYP21-HEK293 enzymatic assay IC50 (Biological Example No. 11)

| Structure (SMILES) | inhibition at 0.001 µM [1, 5] | pIC50 [2, 6] | half-life at 1 μM [3] | inhibition at 0.001 µM [1, 7] | pIC50 [2, 8] | pIC50 [4] | pIC50 [2, 9] |
| --- | --- | --- | --- | --- | --- | --- | --- |
| C[C@]12CCC3C(CCC4=CC(=O)CC[C@@]43C)C1=CC=C2c1cnccn1 (stereo partly drawn) [Compound 291, (10R,13S)-10,13-dimethyl-17-(pyrazin-2-yl)-6,7,8,9,10,11,12,13-octahydro-1H-cyclopenta[a]phenanthren-3(2H)-one] | > 50% | < 7.00 | 1 to 50 min |  |  |  |  |
| C[C@]12CCC3C(C=CC4=C(O)C(=O)CC[C@@]43C)C1=CC=C2c1cccnc1 (stereo partly drawn) [Compound 297, (10R,13S)-4-hydroxy-10,13-dimethyl-17-(pyridin-3-yl)-8,9,10,11,12,13-hexahydro-1H-cyclopenta[a]phenanthren-3(2H)-one] | > 50% | < 7.00 | 1 to 50 min |  |  |  |  |
| C[C@]12CCC(=O)C(O)=C1C=C[C@@H]1[C@@H]2CC[C@]2(C)C(c3cccnc3)=CC[C@@H]12 [Compound 301, (10R,13S)-4-hydroxy-10,13-dimethyl-17-(pyridin-3-yl)-8,9,10,11,12,13,14,15-octahydro-1H-cyclopenta[a]phenanthren-3(2H)-one] | > 50% | < 6.00 | 1 to 50 min |  |  |  |  |
| C[C@]12CCC(=O)C=C1C1CC1[C@@H]1[C@@H]2CC[C@]2(C)C(c3cccnc3)=CC[C@@H]12 (stereo partly drawn) [Compound 319, (4aR,6aS)-4a,6a-dimethyl-7-(pyridin-3-yl)-4,4a,4b,5,6,6a,9,9a,9b,9c,10,10a-dodecahydrocyclopenta[a]cyclopropa[l]phenanthren-2(3H)-one] |  |  | 1 to 50 min | > 50% | < 7.00 |  |  |
| C[C@]12CC[C@H]3[C@@H](CC(CO)C4=CC(=O)CC[C@@]43C)C1=CC=C2c1cccnc1 (stereo partly drawn) [Compound 340, (10R,13S)-6-(hydroxymethyl)-10,13-dimethyl-17-(pyridin-3-yl)-6,7,8,9,10,11,12,13-octahydro-1H-cyclopenta[a]phenanthren-3(2H)-one] |  |  |  | > 50% | < 7.00 | > 7.96 |  |
| CC1C[C@@H]2[C@H](CC[C@]3(C)C(c4cncc(F)c4)=CC[C@@H]23)[C@@]2(C)C=CC(=O)C=C12 (stereo partly drawn) [Compound 345, (10R,13S)-17-(5-fluoropyridin-3-yl)-6,10,13-trimethyl-6,7,8,9,10,11,12,13,14,15-decahydro-3H-cyclopenta[a]phenanthren-3-one] |  |  |  | > 50% | 7.00 to 8.00 | > 7.96 |  |
| C=C1C[C@H]2C3=CC=C(c4cccnc4)[C@@]3(C)CC[C@@H]2[C@@]2(C)C=CC(=O)C=C12 [Compound 350, (10R,13S)-10,13-dimethyl-6-methylene-17-(pyridin-3-yl)-6,7,8,9,10,11,12,13-octahydro-3H-cyclopenta[a]phenanthren-3-one] |  |  | 1 to 50 min |  |  |  | > 8.00 |
| CC1CC2C(CC[C@]3(C)C(c4cccnc4)=CCC23)[C@@]2(C)CCC(=NO)C=C12 (stereo partly drawn) [Compound 361, (10R,13S)-6,10,13-trimethyl-17-(pyridin-3-yl)-6,7,8,9,10,11,12,13,14,15-decahydro-1H-cyclopenta[a]phenanthren-3(2H)-one oxime] |  |  | 1 to 50 min | 10 to 50% | < 7.00 |  |  |
| CC1CC2C3=CC=C(c4ccc(F)nc4)[C@@]3(C)CCC2[C@@]2(C)CCNC(=O)C=C12 (stereo partly drawn) [Compound 385, (5aR,7aS)-8-(6-fluoropyridin-3-yl)-5a,7a,12-trimethyl-3,4,5,5a,5b,6,7,7a,11,12-decahydrocyclopenta[5,6]naphtho[1,2-d]azepin-2(10bH)-one] |  |  |  | 10 to 50% | < 6.00 |  |  |
| C[C@]12CCC3C(CCC45CC4NC(=O)CC[C@]35C)C1CC=C2c1cccnc1 (stereo partly drawn) [Compound 387, (5aR,7aS)-5a,7a-dimethyl-8-(pyridin-3-yl)-1a,2,4,5,5a,5b,6,7,7a,10,10a,10b,11,12-tetradecahydrocyclopenta[5,6]naphtho[2,1-c]cyclopropa[b]azepin-3(1H)-one] |  |  |  | < 10% | < 6.00 |  |  |
| CC1CC2C3=CC=C(c4cncc(F)c4)[C@@]3(C)CCC2[C@@]2(C)CCNC(=O)C=C12 (stereo partly drawn) [Compound 389, (5aR,7aS)-8-(5-fluoropyridin-3-yl)-5a,7a,12-trimethyl-3,4,5,5a,5b,6,7,7a,11,12-decahydrocyclopenta[5,6]naphtho[1,2-d]azepin-2(10bH)-one] |  |  | 1 to 50 min | 10 to 50% | 7.00 to 8.00 |  |  |
| C[C@]12CCC3C(CCC4=CC(=O)NCC[C@@]43C)C1=CC=C2c1cncc(C(F)F)c1 (stereo partly drawn) [Compound 390, (5aR,7aS)-8-(5-(difluoromethyl)pyridin-3-yl)-5a,7a-dimethyl-3,4,5,5a,5b,6,7,7a,11,12-decahydrocyclopenta[5,6]naphtho[1,2-d]azepin-2(10bH)-one] |  |  |  | > 50% | < 6.00 | > 7.96 |  |
| CC1CC2C3=CC=C(c4cncc(C(F)F)c4)[C@@]3(C)CCC2[C@@]2(C)CCNC(=O)C=C12 (stereo partly drawn) [Compound 391, (5aR,7aS)-8-(5-(difluoromethyl)pyridin-3-yl)-5a,7a,12-trimethyl-3,4,5,5a,5b,6,7,7a,11,12-decahydrocyclopenta[5,6]naphtho[1,2-d]azepin-2(10bH)-one] |  |  |  | < 10% | < 6.00 |  |  |
| CC1C[C@@H]2[C@H](CC[C@]3(C)C(c4cccnc4)CC[C@@H]23)[C@@]2(C)CCNC(=O)C=C12 (stereo partly drawn) [Compound 395, (5aR,7aS)-5a,7a,12-trimethyl-8-(pyridin-3-yl)-3,4,5,5a,5b,6,7,7a,8,9,10,10a,11,12-tetradecahydrocyclopenta[5,6]naphtho[1,2-d]azepin-2(10bH)-one] |  |  | 1 to 50 min |  |  |  | > 8.00 |
| C[C@]12CCC(=O)C=C1C=CC1C2CC[C@]2(C)C(c3cccnc3)=CCC12 (stereo partly drawn) [Compound 408, (10R,13S)-10,13-dimethyl-17-(pyridin-3-yl)-8,9,10,11,12,13,14,15-octahydro-1H-cyclopenta[a]phenanthren-3(2H)-one] |  |  | 1 to 50 min | > 50% | < 7.00 |  |  |
| C[C@]12CCC(=O)C=C1C(=O)CC1C2CC[C@]2(C)C(c3cncc(F)c3)=CCC12 (stereo partly drawn) [Compound 417, (10R,13S)-17-(5-fluoropyridin-3-yl)-10,13-dimethyl-7,8,9,11,12,13,14,15-octahydro-1H-cyclopenta[a]phenanthrene-3,6(2H,10H)-dione] |  |  |  | > 50% | < 6.00 | > 7.96 |  |
| C[C@]12CCC(=O)CC1C(=O)CC1C2CC[C@]2(C)C(c3cncc(F)c3)=CCC12 (stereo partly drawn) [Compound 418, (10R,13S)-17-(5-fluoropyridin-3-yl)-10,13-dimethyl-4,5,7,8,9,11,12,13,14,15-decahydro-1H-cyclopenta[a]phenanthrene-3,6(2H,10H)-dione] |  |  |  | > 50% | < 6.00 | > 7.96 |  |
| CC1C[C@@H]2[C@H](CC[C@]3(C)C(c4cccnc4)CC[C@@H]23)[C@@]2(C)CCC(=O)C=C12 (stereo partly drawn) [Compound 420, (10R,13S)-6,10,13-trimethyl-17-(pyridin-3-yl)-6,7,8,9,10,11,12,13,14,15,16,17-dodecahydro-1H-cyclopenta[a]phenanthren-3(2H)-one] |  |  | 1 to 50 min |  |  |  | > 8.00 |
| CC1C[C@@H]2[C@H](CC[C@]3(C)C(c4cccnc4)CC[C@@H]23)[C@@]2(C)C=CC(=O)C=C12 (stereo partly drawn) [Compound 421, (10R,13S)-6,10,13-trimethyl-17-(pyridin-3-yl)-6,7,8,9,10,11,12,13,14,15,16,17-dodecahydro-3H-cyclopenta[a]phenanthren-3-one] |  |  | 1 to 50 min |  |  |  | > 8.00 |
| C[C@]12CCC(=O)C=C1CCC1C2CC[C@]2(C)C(c3cncc(C(F)F)c3)=CCC12 (stereo partly drawn) [Compound 479, (10R,13S)-17-(5-(difluoromethyl)pyridin-3-yl)-10,13-dimethyl-6,7,8,9,10,11,12,13,14,15-decahydro-1H-cyclopenta[a]phenanthren-3(2H)-one] |  |  |  | 10 to 50% | < 6.00 |  |  |
